Data published in PMC12297016 (Iranian Journal of Pharmaceutical Research : IJPR, 2025).

What was measured:
[1] = molecular target: T1, recombinant human matrix metalloproteinase 9 (rhMMP-9) (Homo sapiens, UniProt P14780); assay: Protease activity assay of rhMMP-9 with casein as substrate; assay type: biochemical; details: for α: KI = α × Ki; for type of inhibition: Lineweaver-Burk and secondary plots, mixed type; for IC50: casein degradation assay, inhibitor 0 to 70 µM, read-out: IC50 of rhMMP-9 activity inhibition; for Ki: dissociation constant of EI complex, from secondary plot of slope against [I]; for αKi (KI): dissociation constant of ESI complex, from Dixon plot of 1/V'max against [I]; for K m: casein substrate
T1 construct: amino acid residues from 107 to 707, consisted of the catalytic domain (Phe107 to Gly223); His-tag; made in house; host or cells: Escherichia coli BL21 (DE3), vector pET21a(+)
Description: To determine the hydrolyzing activity of rhMMP-9, casein was used as a substrate. A casein solution (1% w/v) was added to the extracted and purified rhMMP-9, and the final volume was adjusted to 1 mL with Tris buffer (pH 7). The expression product and substrate mix were incubated with shaking for 5 minutes at 37°C. To stop the process, 1 mL of cold trichloroacetic acid (TCA, 15%) was added to the mixture. This mixture was then kept at -20°C for 10 minutes and centrifuged twice (8000 g, 5 min, 4°C) to separate soluble peptides. The pellet was discarded, and the absorbance of the supernatant soluble peptides fraction was evaluated at 280 nm. All spectrophotometric measurements were accompanied by a blank assay in the absence of the enzyme. Enzyme activity was calculated from the tyrosine standard curve and expressed as mean ± SD in units of [µmol/min] after at least five repeats ([22]). SPSS software version 9 was used for data interpretation, and all graphs were drawn and kinetic parameters calculated using an Excel spreadsheet software program. The Quest Graph IC50 Calculator was used for the calculation of IC50 values.
A cell-free casein degradation-based assay was employed to evaluate the influence of ellagitannins on the catalytic activity of the rhMMP-9 enzyme. By adding various fixed quantities of casein as a substrate and a fixed concentration of enzyme, the enzyme activity was determined in the presence of different concentrations of ellagitannins (ranging from 0 to 70 µM). The rate of tyrosine production by the protease activity of rhMMP-9 was assessed based on a calibration curve over 1 minute, which refers to enzyme activity.
To examine the effects of inhibitors on the kinetic parameters of rhMMP-9, Michaelis-Menten saturation curves and Lineweaver-Burk plots were drawn in the presence of various concentrations of inhibitors (5 - 30 µM) and substrate range (0 - 0.3%) (Figure 4).
The first of these is a Dixon plot of 1/Vʹmax against the concentration of inhibitor [I], from which the value of -αKi as the x-intercept can be determined (Figure 5A - C). The second is the slope of the primary plot (from the Lineweaver-Burk plot) against the concentration of inhibitor [I], from which the value of -Ki as the x-intercept can be determined (Figure 5D - F).

[2] = molecular target: T1, recombinant human matrix metalloproteinase 9 (rhMMP-9); assay: Surface plasmon resonance (SPR) binding to immobilized rhMMP-9; details: 37°C, 5-40 µM
Excerpt: A dual-flow channel MP-SPR Navi 210A analyzer (BioNavis Ltd., Tampere-region, Finland) was used to evaluate SPR kinetic parameters on gold chips (BioNavis Ltd., Finland). A solution of both EDC/NHS ((N-(3-dimethylaminopropyl)-N′-ethylcarbodiimide hydrochloride) (0.2 M) and NHS (N-hydroxysuccinimide) (0.05 M)) was employed for the activation of […] carboxylic groups. Immobilization of the rMMP-9 enzyme on the CMD Au chip was accomplished by a standard amine coupling protocol. For blocking unreacted sites, ethanolamine–HCl (1 M, pH 8.5) reagent was used.
The SPR technique, a current method for examining the interaction between ligand and protein, was employed in this research. As presented in Figure 6, association (Ka) and dissociation (Kd) constants were evaluated through sensorgrams (RU vs. time). Five […] concentrations for each of the three natural compounds were used (5, 10, 20, 30, 40 µM).
The equilibrium constant KD, which evaluates the affinity of a ligand to a protein, was determined using the formula: =Kd/Ka . A lower value of the KD constant indicates a higher interaction affinity between the protein and ligand.

T1 sequence (P14780 107-707): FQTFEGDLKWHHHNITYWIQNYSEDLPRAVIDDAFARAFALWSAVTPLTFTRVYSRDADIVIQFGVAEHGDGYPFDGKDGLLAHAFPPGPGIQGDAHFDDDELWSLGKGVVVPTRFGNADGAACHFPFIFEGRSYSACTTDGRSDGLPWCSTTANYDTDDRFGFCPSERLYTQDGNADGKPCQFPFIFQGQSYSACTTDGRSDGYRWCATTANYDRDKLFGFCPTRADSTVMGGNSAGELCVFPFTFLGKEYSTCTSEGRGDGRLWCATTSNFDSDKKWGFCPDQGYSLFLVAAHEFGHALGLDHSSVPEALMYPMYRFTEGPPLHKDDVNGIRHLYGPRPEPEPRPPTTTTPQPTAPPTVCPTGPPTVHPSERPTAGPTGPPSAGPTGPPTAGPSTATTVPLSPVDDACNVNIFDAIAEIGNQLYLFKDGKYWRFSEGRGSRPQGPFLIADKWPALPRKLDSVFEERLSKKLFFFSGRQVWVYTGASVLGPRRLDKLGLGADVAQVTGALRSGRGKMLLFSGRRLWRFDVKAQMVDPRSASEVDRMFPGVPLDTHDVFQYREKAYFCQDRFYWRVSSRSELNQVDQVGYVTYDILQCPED

α [1]	type of inhibition [1]	IC50 [1]	Ki [1]	αKi (KI) ([1]; in µM)	reduction of catalytic activity ([1]; high concentration (60 µM))	V max ([1]; inhibitor 15 µM)	K m ([1]; inhibitor 15 µM)	V max ([1]; inhibitor 30 µM)	K m ([1]; inhibitor 30 µM)	Kd [2]	αKi (KI) [1]	extent of inhibition of catalytic activity at high concentrations [1]	V max ([1]; inhibitor 5 µM)	K m ([1]; inhibitor 5 µM)	SMILES
1.11	competitive-non-competitive pattern	17.1 µM	24.9 µM	27.57	90%	0.093 ± 0.005 µmol/min	0.03 ± 0.002%	0.078 ± 0.004 µmol/min	0.03 ± 0.002%	113 µM					O=c1oc2c(O)c(O)cc3c(=O)oc4c(O)c(O)cc1c4c23 [EA, ellagic acid]
0.25	non-competitive-uncompetitive pattern	33.3 µM	12 µM			0.04 ± 0.002 µmol/min	0.1 ± 0.005%			67 µM	3.03 µM	entirely inhibit	0.120 ± 0.006 µmol/min	0.085 ± 0.004%	O=c1oc2cc(O)ccc2c2ccc(O)cc12 [Uro A, urolithin A]
0.13	non-competitive-uncompetitive pattern	13.2 µM	22.5 µM			0.033 ± 0.002 µmol/min	0.020 ± 0.001%			43 µM	3.02 µM	entirely inhibit	0.079 ± 0.004 µmol/min	0.030 ± 0.002%	O=c1oc2cc(O)ccc2c2ccccc12 [Uro B, urolithin B]
